Values of other authors, collected in US8591947B2, “Dual controlled release dosage form” (Osmotica Kereskedelmi és Szolgáltató KFT, priority 2001, dated 2013).
Counter-ions that a name gives are not always drawn.

Structure (SMILES) | Solubility of component in water (U.S.P. term)
Cc1nc2n(c(=O)c1CCN1CCC(c3noc4cc(F)ccc34)CC1)CCCC2 [risperidone] | practically insoluble
CCN(C)C(=O)Oc1cccc([C@H](C)N(C)C)c1 [rivastigmine hydrogen tartrate] | very soluble
CS(=O)(=O)c1ccc(C2=C(c3ccccc3)C(=O)OC2)cc1 [rofecoxib] | practically insoluble
CN(CCOc1ccc(CC2SC(=O)NC2=O)cc1)c1ccccn1 (stereo not shown) [rosiglitazone maleate] | soluble
OCc1cc(C(O)CNCCCCCCOCCCCc2ccccc2)ccc1O (stereo not shown) [salmeterol] | sparingly soluble
CN[C@H]1CC[C@@H](c2ccc(Cl)c(Cl)c2)c2ccccc21 [sertraline HCl] | slightly soluble
CCCc1nn(C)c2c(=O)[nH]c(-c3cc(S(=O)(=O)N4CCN(C)CC4)ccc3OCC)nc12 [sildenafil citrate] | slightly soluble
CNS(=O)(=O)Cc1ccc2[nH]cc(CCN(C)C)c2c1 [sumatriptan] | soluble
COc1cccc(C2(O)CCCCC2CN(C)C)c1 (stereo not shown) [tramadol HCl] | freely soluble
O=c1n(CCCN2CCN(c3cccc(Cl)c3)CC2)nc2ccccn12 [trazodone HCl] | sparingly soluble
